Assay results: US10138207B2, “Benzomorphan analogs and the use thereof” (priority 2012, dated 2018)
Like-named read-outs stand apart in the source and are kept apart here.

Assays:
[1] = target: T1, κ opioid receptor (Homo sapiens, UniProt P41145); experiment: biochemical; type: binding; parameters: expressed in transfected cells; host or cells: HEK 293 (in-house membrane prep); settings: HEK-293 or CHO cells
[2] = target: μ-opioid receptor (Homo sapiens, UniProt P35372); experiment: μ-opioid receptor [35S]GTPγS functional assay, U-2 OS cells; type: biochemical; parameters: expressed in transfected cells; host or cells: U-2 OS; settings: for Emax: relative to DAMGO
[3] = target: T1, κ opioid receptor; experiment: κ-opioid receptor [35S]GTPγS functional assay, U-2 OS cells; type: biochemical; parameters: expressed in transfected cells; host or cells: U-2 OS (in-house membranes); settings: for Emax: read-out: GTPγS κ Emax
Procedure: Membranes from recombinant HEK-293 cells, CHO or U-2 OS cells expressing the recombinant human κ opioid receptor (κ) were prepared by lysing cells in ice cold hypotonic buffer (2.5 mM MgCl2, 50 mM HEPES, pH 7.4) (10 mL/10 cm dish) followed by homogenization with a tissue grinder/Teflon pestle. […] Membranes were collected by centrifugation at 30,000×g for 15 min at 4° C. and pellets were resuspended in hypotonic buffer to a final concentration of 1-3 mg/mL. Protein concentrations were determined using the BioRad protein assay reagent with bovine serum albumen as standard. Aliquots of κ receptor membranes were stored at −80° C.
Plates were incubated for 30 min at a temperature of about 25° C. with shaking.

[4] = U-2 OS cells, bound in μM, read-out: GTPγS μ EC50
[5] = U-2 OS cells, read-out: GTPγS μ Emax
[6] = U-2 OS cells, read-out: GTPγS μ EC50
[7] = U-2 OS cells, read-out: GTPγS κ EC50
[8] = U-2 OS cells, relative to U69,593
[9] = U-2 OS cells, bound in μM, read-out: GTPγS κ EC50

μ-opioid receptor, sequence (P35372 whole entry, species assumed): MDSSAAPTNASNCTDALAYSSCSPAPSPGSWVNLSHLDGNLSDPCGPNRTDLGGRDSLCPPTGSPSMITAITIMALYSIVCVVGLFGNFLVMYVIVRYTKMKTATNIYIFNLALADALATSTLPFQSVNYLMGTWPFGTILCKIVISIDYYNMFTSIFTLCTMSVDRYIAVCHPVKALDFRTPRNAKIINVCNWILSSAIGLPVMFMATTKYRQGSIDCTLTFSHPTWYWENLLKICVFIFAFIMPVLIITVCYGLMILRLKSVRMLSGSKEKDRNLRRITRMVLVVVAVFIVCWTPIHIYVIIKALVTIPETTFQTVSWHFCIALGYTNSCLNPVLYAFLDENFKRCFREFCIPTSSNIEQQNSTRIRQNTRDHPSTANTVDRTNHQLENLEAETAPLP
T1 sequence (P41145 whole entry): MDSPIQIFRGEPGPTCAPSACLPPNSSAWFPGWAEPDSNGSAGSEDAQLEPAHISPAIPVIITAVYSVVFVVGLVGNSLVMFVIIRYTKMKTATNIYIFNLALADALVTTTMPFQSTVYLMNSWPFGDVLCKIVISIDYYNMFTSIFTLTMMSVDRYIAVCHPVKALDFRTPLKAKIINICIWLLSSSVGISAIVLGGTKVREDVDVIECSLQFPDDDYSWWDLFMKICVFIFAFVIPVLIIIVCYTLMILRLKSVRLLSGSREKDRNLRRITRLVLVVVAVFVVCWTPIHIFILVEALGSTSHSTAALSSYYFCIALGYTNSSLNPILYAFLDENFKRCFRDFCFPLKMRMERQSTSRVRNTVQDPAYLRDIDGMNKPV

SMILES | Emax [2, 5] [%] | Ki [1] [µM] | EC50 [2, 6] [µM] | Emax [3, 8] [%] | also measured
COc1ccc2c(c1)[C@@]1(C)CCN(C)C(C2)[C@@H]1CO [Compound 11, ((6S,11R)-8-methoxy-3,6-dimethyl-1,2,3,4,5,6-hexahydro-2,6-methanobenzo[d]azocin-11-yl)methanol] |  |  |  |  | Ki ([1]; bound in μM): > 20 µM
COc1ccc2c(c1)[C@@]1(C)CCN(CC3CC3)C(C2)[C@H]1N(C)C(=O)Nc1ccc(C(N)=O)cc1 [Compound 82] | 31.7 ± 5.36 | 10.2 |  |  | EC50 [2, 4]: > 20 µM
CCOC(=O)C[C@H]1C2Cc3ccc(OC)cc3[C@@]1(C)CCN2C [Compound 14, ethyl 2-((6S,11R)-8-methoxy-3,6-dimethyl-1,2,3,4,5,6-hexahydro-2,6-methanobenzo[d]azocin-11-yl)acetate] |  | 14.3 |  |  | 
COc1ccc2c(c1)C1(C)CCN(CCC(C(=O)N(C)C)(c3ccccc3)c3ccccc3)C(C2)C1=NO (stereo not shown) [Compound 19, 4-(11-(hydroxyimino)-8-methoxy-6-methyl-1,2,5,6-tetrahydro-2,6-methanobenzo[d]azocin-3(4H)-yl)-N,N-dimethyl-2,2-diphenylbutanamide] |  | 8.52 ± 0.605 |  |  | 
CN[C@H]1C2Cc3ccc(OC)cc3[C@@]1(C)CCN2C [Compound 9, (6R,11R)-8-methoxy-N,3,6-trimethyl-1,2,3,4,5,6-hexahydro-2,6-methanobenzo[d]azocin-11-amine] |  | 18.9 ± 3.13 |  |  | 
COc1ccc2c(c1)[C@@]1(C)CCN(C)C(C2)C1NC(=O)/C=C/c1ccoc1 (stereo in doubt) [Compound 23, (E)-3-(furan-3-yl)-N-((2R,6R,11S)-8-methoxy-3,6-dimethyl-1,2,3,4,5,6-hexahydro-2,6-methanobenzo[d]azocin-11-yl)acrylamide] |  | 13.2 |  |  | 
CCOC(=O)/C=C1\C2Cc3ccc(OC)cc3C1(C)CCN2C (stereo not shown) [Compound 12] |  |  |  |  | Ki ([1]; bound in μM): > 20 µM
COc1ccc2c(c1)C1(C)CCN(C)C(C2)/C1=C\C(=O)O (stereo not shown) [Compound 13, (Z)-2-(8-methoxy-3,6-dimethyl-1,2,3,4,5,6-hexahydro-2,6-methanobenzo[d]azocin-11-ylidene)acetic acid] |  |  |  |  | Ki ([1]; bound in μM): > 20 µM
COc1ccc2c(c1)[C@@]1(C)CCN(CC3CC3)[C@H](C2)[C@H]1N(C)C(=O)/C=C/c1ccoc1 [Compound 85, (E)-N-((2R,6R,11S)-3-(cyclopropylmethyl)-8-methoxy-6-methyl-1,2,3,4,5,6-hexahydro-2,6-methanobenzo[d]azocin-11-yl)-3-(furan-3-yl)-N-methylacrylamide] | 19.3 ± 2.33 | 0.701 ± 0.0941 | 3.24 ± 0.77 |  | 
COc1ccc2c(c1)[C@@]1(C)CCN(C)C(C2)[C@@H]1CC(=O)O [Compound 15, 2-((6S,11R)-8-methoxy-3,6-dimethyl-1,2,3,4,5,6-hexahydro-2,6-methanobenzo[d]azocin-11-yl)acetic acid] |  |  |  |  | Ki ([1]; bound in μM): > 20 µM
CN[C@@H]1C2Cc3ccc(OC)cc3[C@@]1(C)CCN2C [Compound 8, (6R,11S)-8-methoxy-N,3,6-trimethyl-1,2,3,4,5,6-hexahydro-2,6-methanobenzo[d]azocin-11-amine] |  |  |  |  | Ki ([1]; bound in μM): > 20 µM
CN(C)C(=O)C(CCN1CC[C@]2(C)c3cc(O)ccc3CC1[C@@H]2O)(c1ccccc1)c1ccccc1 [Compound 21, 4-((6R,11R)-8,11-dihydroxy-6-methyl-1,2,5,6-tetrahydro-2,6-methanobenzo[d]azocin-3(4H)-yl)-N,N-dimethyl-2,2-diphenylbutanamide] |  | 1.22 ± 0.332 |  |  | 
CN1CCC2(C)C(=NO)C1Cc1ccc(O)cc12 (stereo not shown) [Compound 18, 8-hydroxy-3,6-dimethyl-1,2,3,4,5,6-hexahydro-2,6-methanobenzo[d]azocin-11-one oxime] |  | 5.58 ± 1.01 |  |  | 
CN1CC[C@@]2(C)c3cc(O)ccc3C[C@@H]1[C@@H]2N(C)C(=O)/C=C/c1cccnc1 [Compound 122, (E)-N-((2R,6S,11R)-8-hydroxy-3,6-dimethyl-1,2,3,4,5,6-hexahydro-2,6-methanobenzo[d]azocin-11-yl)-N-methyl-3-(pyridin-3-yl)acrylamide] | 102 ± 1.2 |  | 0.00036 ± 1e-05 | 94.5 ± 0.65 | EC50 [3, 7]: 0.0152 ± 0.00263 µM
CON=C1C2Cc3ccc(OC)cc3C1(C)CCN2CC1CC1 (stereo not shown) [Compound 10, 3-(cyclopropylmethyl)-8-methoxy-6-methyl-1,2,3,4,5,6-hexahydro-2,6-methanobenzo[d]azocin-11-one O-methyl Oxime] |  | 2.14 ± 0.151 |  |  | 
CCC[C@@]12CCN(C)C(Cc3ccc(O)cc31)[C@H]2N(C)C(=O)Nc1ccc(C#N)cc1 [Compound 137, 3-(4-cyanophenyl)-1-((6R,11S)-8-hydroxy-3-methyl-6-propyl-1,2,3,4,5,6-hexahydro-2,6-methanobenzo[d]azocin-11-yl)-1-methylurea] | 50.3 ± 1.76 |  | 1.32 ± 0.177 | 30 ± 2.31 | EC50 [3, 7]: 3.37 ± 0.753 µM
CN1CC[C@@]2(C)c3cc(O)ccc3C[C@@H]1[C@@H]2NCCc1ccc(F)cc1 [Compound 101, (2R,6S,11R)-11-((4-fluorophenethyl)amino)-3,6-dimethyl-1,2,3,4,5,6-hexahydro-2,6-methanobenzo[d]azocin-8-ol] |  |  |  | 66.7 ± 1.2 | EC50 ([2]; GTPγS μ EC50, U-2 OS cells): 0.00373 ± 0.00021 µM; EC50 [3]: 1.08 ± 0.113 µM
C[C@]12CCN(CC3CC3)[C@H](Cc3ccc(O)cc31)[C@@H]2NC(=O)c1ccsc1 [Compound 127, N-((2R,6S,11R)-3-(cyclopropylmethyl)-8-hydroxy-6-methyl-1,2,3,4,5,6-hexahydro-2,6-methanobenzo[d]azocin-11-yl)thiophene-3-carboxamide] |  |  |  |  | EC50 ([2]; GTPγS μ EC50, U-2 OS cells, bound in μM): > 20 µM; Emax ([2]; read-out: GTPγS μ Emax, U-2 OS cells): 3.67 ± 1.2%; EC50 [3]: 0.947 ± 0.068 µM; Emax [3]: 93 ± 3.51%
CN(C(=O)c1ccsc1)[C@@H]1[C@H]2Cc3ccc(O)cc3[C@]1(C)CCN2CC1CC1 [Compound 114, N-((2R,6S,11S)-3-(cyclopropylmethyl)-8-hydroxy-6-methyl-1,2,3,4,5,6-hexahydro-2,6-methanobenzo[d]azocin-11-yl)-N-methylthiophene-3-carboxamide] | 20.7 ± 0.67 |  | 0.152 ± 0.0168 | 107 ± 4.36 | EC50 [3, 7]: 0.0189 ± 0.00201 µM
CN(C(=O)c1ccccc1)[C@@H]1[C@H]2Cc3ccc(O)cc3[C@]1(C)CCN2CC1CC1 [Compound 115, N-((2R,6S,11S)-3-(cyclopropylmethyl)-8-hydroxy-6-methyl-1,2,3,4,5,6-hexahydro-2,6-methanobenzo[d]azocin-11-yl)-N-methylbenzamide] | 37.7 ± 1.67 |  | 0.159 ± 0.0154 | 76 ± 6.66 | EC50 [3, 7]: 0.0534 ± 0.00728 µM
COc1ccc2c(c1)[C@@]1(C)CCN(C)C(C2)[C@H]1N(C)C(=O)/C=C/c1ccoc1 [Compound 20, (E)-3-(furan-3-yl)-N-((6R,11S)-8-methoxy-3,6-dimethyl-1,2,3,4,5,6-hexahydro-2,6-methanobenzo[d]azocin-11-yl)-N-methylacrylamide] |  | 1.95 ± 0.538 |  |  | 
COc1ccc(CCN[C@H]2[C@H]3Cc4ccc(O)cc4[C@]2(C)CCN3C)cc1 [Compound 100, (2R,6S,11R)-11-((4-methoxyphenethyl)amino)-3,6-dimethyl-1,2,3,4,5,6-hexahydro-2,6-methanobenzo[d]azocin-8-ol] | 102 ± 1.45 |  | 0.04 ± 0.00325 | 45 ± 2.08 | EC50 [3, 7]: 1.76 ± 0.364 µM
C[C@]12CCN(CC3CC3)[C@H](Cc3ccc(O)cc31)[C@H]2NCC1CCNCC1 [Compound 102, (2R,6S,11S)-3-(cyclopropylmethyl)-6-methyl-11-((piperidin-4-ylmethyl)amino)-1,2,3,4,5,6-hexahydro-2,6-methanobenzo[d]azocin-8-ol] | 2.5 |  |  | -1 | EC50 [2, 4]: > 20 µM; EC50 [3, 9]: > 20 µM
CN1CC[C@@]2(C)c3cc(O)ccc3C[C@@H]1[C@H]2NCCc1ccc(C(C)(C)C)cc1 [Compound 105, (2R,6S,11S)-11-((4-(tert-butyl)phenethyl)amino)-3,6-dimethyl-1,2,3,4,5,6-hexahydro-2,6-methanobenzo[d]azocin-8-ol] | 32.7 ± 1.76 |  | 0.00022 ± 5.2e-05 | 1 | EC50 [3, 9]: > 20 µM
CCC[C@@]12CCN(C)C(Cc3ccc(OC)cc31)[C@H]2N(C)C(=O)Nc1ccc(CN)cc1 [Compound 138, 3-(4-(aminomethyl)phenyl)-1-((6R,11S)-8-methoxy-3-methyl-6-propyl-1,2,3,4,5,6-hexahydro-2,6-methanobenzo[d]azocin-11-yl)-1-methylurea] | 45.3 ± 2.33 |  |  | 35.5 ± 2.06 | EC50 [2, 4]: > 20 µM; EC50 [3, 9]: > 20 µM
CN1CC[C@@]2(C)c3cc(O)ccc3C[C@@H]1[C@H]2NCCc1ccc(Cl)c(Cl)c1 [Compound 99, (2R,6S,11S)-11-((3,4-dichlorophenethyl)amino)-3,6-dimethyl-1,2,3,4,5,6-hexahydro-2,6-methanobenzo[d]azocin-8-ol] | 71 ± 2 |  | 0.00013 ± 1e-05 | 72.3 ± 4.67 | EC50 [3, 7]: 0.00144 ± 5.3e-05 µM
C[C@]12CCN(CC3CC3)[C@H](Cc3ccc(O)cc31)[C@H]2NCCc1ccc(S(N)(=O)=O)cc1 [Compound 97, 4-(2-(((2R,6S,11S)-3-(cyclopropylmethyl)-8-hydroxy-6-methyl-1,2,3,4,5,6-hexahydro-2,6-methanobenzo[d]azocin-11-yl)amino)ethyl)benzenesulfonamide] | 2.5 |  |  | 0 | EC50 [2, 4]: > 20 µM; EC50 [3, 9]: > 20 µM
C[C@]12CCN(CC3CC3)[C@H](Cc3ccc(O)cc31)[C@@H]2NS(=O)(=O)c1cccc(C(F)(F)F)c1 [Compound 129, N-((2R,6S,11R)-3-(cyclopropylmethyl)-8-hydroxy-6-methyl-1,2,3,4,5,6-hexahydro-2,6-methanobenzo[d]azocin-11-yl)-3-(trifluoromethyl)benzenesulfonamide] | 20 ± 1.15 |  | 0.00914 ± 0.00119 | 97.3 ± 1.86 | EC50 [3, 7]: 0.00078 ± 7e-05 µM
